Measured values: patent US20250302816A1, “DISRUPTION OF EPITHELIAL BARRIERS FOR MOLECULAR DELIVERY ENHANCEMENT OR EXTRACTION OF EXTRACELLULAR FLUIDS” (The University of Nottingham, priority 2022, published 2025)

What was measured:
Calu-3 = assay: Further in vitro Transwell studies: enhancing translocation of 4 kDa FITC-dextran; format: cell-based, human
Method: Exemplary molecules (a)-(1) investigated in coarse dose-response by FD4 delivery in Transwell culture (Calu-3). Each molecule was screened at 5 nM, 1 μM, 200 μM levels.
Each compound was screened at 200 μM level.
Each molecule was screened at 5 nM, 1 μM, 200 μM levels.

[1] = tested on: human primary lung epithelium; assay: Human primary lung epithelium, air-liquid interface culture: TEER, FD4 and mAb delivery; format: cell-based
MMP = assay: Fluorogenic MMP activity assay; format: cell-based, human
Method: FIG. 5: High-throughput MMP assay (MMP Activity Assay Kit (Fluorometric-Red), Abcam #ab112147) showing the normalised accumulation slope of FRET-based signal (Ex540: Em590 nm) read at 5 minute intervals for one hour in adherent Calu-3 cells cultured in glass-bottomed 96-well plates using a SpectraMax i3x/Biomek FXPP high-throughput platform. Each experiment was conducted in triplicate (error bars). Signal accumulation over time in each well was linearly fitted and the gradient of each fit was scaled against the gradient of the relevant positive control wells, to which active MMP was added directly (mixed isoforms, […]), to obtain the normalised accumulation slope.
To investigate the involvement of MMP in the disruption of tight junctions observed in the presence of 200 μM 3OC12-HSL and C7 PQS, a fluorogenic MMP activity assay was performed, using the Amplite™ Universal Fluorimetric MMP Activity Assay Kit. This kit is designed to check the general activity of a MMP enzyme.
Following treatment with 3OC12-HSL and C7 PQS respectively, the conditioned media were collected every hour from apical chamber and MMP activity was determined by using Amplite™ Universal Fluorimetric MMP Activity Assay Kit Green Fluorescence according to the manufacturer's instructions.
A fluorogenic MMP activity assay was carried out in the same manner on further agents.

Calu-3 cell layers = assay: FD4 permeability and TEER of polarised Calu-3 cell layers; format: cell-based, human
ZO-1 = ZO-1 immunostaining and confocal microscopy of Calu-3 cell layers; format: cell-based, human; details: 200 μM, one hour, vs vehicle 0.15% DMSO
Method: To visualise the effect of 3OC12-HSL and C7 PQS on tight junction integrity in Calu-3 cell layers, ZO-1, immunostaining and confocal microscopy was performed on cell layers treated by 200 μM 3OC12-HSL and C7 PQS and control (0.15% DMSO in HBSS) for one hour. Confluent cell monolayers were washed with PBS and fixed in 4% paraformaldehyde in PBS for approximately 10 min at room temperature. Cells were then washed 3 times with PBS and permeabilised by incubating with Triton X-100 (0.1% v/v in PBS) for 10 min. Cells were then washed with PBS, followed by the application of 1% BSA/PBS for approximately 1 hour. Thereafter, BSA/PBS solution was aspirated and replaced with mouse, anti-human ZO-1 (primary) antibody, diluted in 1% BSA/PBS to a final concentration of 100 μg/ml. Cell samples were incubated with the primary antibody for 2 hours. The primary antibody solution was then removed and cells washed with PBS (5 times). FITC-labelled goat, anti-mouse (secondary) antibody, diluted according to manufacturer's instructions in 1% BSA/PBS was then applied to the cells for 1 hour. The secondary antibody solution was then aspirated and cells washed with PBS three times. […]

Calu-3 cells = assay: MTS assay of metabolic activity / cell viability; format: cell-based, human; details: 5 nM to 200 μM, 6 hours
Method: To assess 3OC12-HSL and C7 PQS molecules cytotoxicity on cell viability of Calu-3 cell layers and to monitor short-term cytotoxicity during experiments, Calu-3 cells were treated with 3OC12-HSL and C7 PQS, at concentrations 5 nM, 1 μM, 50 μM, 100 μM and 200 μM, for 6 hours. At the end of the treatment, cell viability (through measuring metabolic activity) of cultures was determined by chromogenic MTS assay.
The viability of Calu-3 cells was determined by a chromogenic MTS method based on the measuring of mitochondrial respiration, assessed by the reduction of 3-(4,5-dimethylthiazol-2-yl)-5-(3-carboxymethoxyphenyl)-2-(4-sulfophenyl)-2H-tetrazolium to formazan. Calu-3 cells were cultured in a 96-well plate (CellTiter 96® Aqueous, Promega) at a density of 10^4 cells per well and incubated at 37° C., 5% CO2 for 24 hours. After 24 hours, the medium was replaced with 100 μl of test compounds dissolved in HBSS and then cells were incubated for 6 hours. HBSS and Triton X-100 (0.1% v/v in HBSS) were used as the negative and positive controls respectively. Bathing solutions were then aspirated and cells washed with PBS. Then culture medium (100 μl at 37° C.) plus MTS reagent (20 μl) were added into each well and cells were incubated for 2 hours. Absorbance at 492 was measured using a Dynex absorbance microplate reader (Dynex Technologies, USA) and converted into a percentage metabolic rate.

ARPE-19 cell layers = assay: Transwell drug transport across ARPE-19 cell layers with or without 3OC12-HSL; format: cell-based, human; details: doxorubicin 250 μg/ml apical, after 5 hours
Method: FIG. 1: Macromolecular therapeutics transported across ARPE-19 cell layers in the absence and presence of 3OC12-HSL transported into the basolateral chamber over a period of five hours. Permeability experiments were initiated by applying 0.5 ml of the test solutions (250 μg/ml Aflibercept/Bevacizumab/or Doxorubicin diluted in HBSS/HEPES) to the apical side of the cells (donor compartment of the Transwell) with or without 3OC12-HSL (200 μM). Drug permeability was determined by sampling the basolateral solution at regular time intervals. Data points are expressed as means±SEM, derived from three replicates in triplicate. p values of <0.05 were considered statistically significant. *, ** and *** denote p<0.05, p<0.01 and p<0.001, respectively.
Calu-3 cells obtained from American Type Culture Collection, USA were cultured using Dulbecco's Modified Eagle Medium (DMEM) supplemented with penicillin (100 U/mL), streptomycin (0.1 mg/mL), amphotericin (0.25 μg/mL), non-essential amino acids (NEM, 1%) and Fetal Bovine Serum (FBS, 10% v/v, Sigma-Aldrich, UK). The human-derived RPE cell line ARPE-19 was obtained from American Type Culture Collection. Cells were grown in Dulbecco's Modified Eagle Medium: F12 (1:1; Gibco, Invitrogen, Carlsbad, CA), including 10% inactivated fetal bovine serum, 100 units/mL penicillin, 100 μg/mL streptomycin, and 2 mM L-glutamine (Sigma-Aldrich). Caco-2 cells were grown in complete culture medium (DMEM supplemented with 17% FBS and 1% antibiotic-antimycotic solution). All cells were kept in a water-jacketed incubator (model 3546, Forma Scientific, Inc., Marietta, OH, USA) maintained at 37° C. and an atmosphere of humidified air with 5% CO2. Medium was replaced every other day until cells reached the 80-90% confluence desired for re-plating or culturing mature, polarised barrier models.
When confluent, cells were seeded on Transwell® filters (12 mm diameter, 0.4 μm pore size; Corning Life Sciences, Holland) at 10^5 cells/cm^2. […]
Three polarised epithelial in-vitro tissue models, including lung epithelium (Calu-3), retinal pigment epithelium (ARPE-19) and intestinal epithelial (Caco-2) were used to study the efficiency of 200 μM 3OC12-HSL as a paracellular permeability enhancer for three different drugs: bevacizumab, aflibercept and doxorubicin (applied concentrations 250 μg/mL). The amount of drugs transported was determined via the conversion of fluorescence intensity to amount (μg or ng), using calibration curves constructed via serial standard dilutions. […]
Permeability experiments were initiated by applying 0.5 mL of the test solutions to the apical side of the cells (donor compartment of the Transwell®). […] Drug permeability was determined by sampling the basolateral solution at regular time intervals. […]

ex-vivo rat eyes = tested on: ex-vivo rat eyes
Method: In order to investigate the efficacy of 3OC12-HSL as drug delivery enhancer in intact tissue, bevacizumab (250 μg/mL: […]) and aflibercept (40 mg/mL: 348 μM) were applied with and without 3OC12-HSL to ex-vivo rat eyes, and the distribution of drugs was visualised within sagittal ocular cryosections by confocal microscopy. A further set of experiments tested efficacy of 3OC12-HSL via ex vivo porcine skin.
Six hooded rats with pigmented eyes, weighing 280-300 g and aged 7-8 weeks were provided by Bio-Support Unit at the Queen's Medical Centre, Nottingham. Experiments were designed to be performed ex-vivo, immediately post-sacrifice, during experiments supporting other studies. Tested therapies (bevacizumab (250 μg/mL), aflibercept (250 μg/mL) with/without 3OC12-HSL (200 μM) were immediately applied post-sacrifice in (50 μL) to the corneal surface of each animal for a period of 1 hour, before being washed off using ice-cold PBS. The eyeballs were enucleated, immersed in OCT, and flash-frozen in isopentane cooled by liquid N2 before being stored at −80° C. for further processing.
OCT-embedded eyes were cut into 15 μm tissue sections using a cryostat (Leica 3050) and mounted on gelatin-coated slides, at cutting temperatures between −15 and −23° C. […]

CCCCCCCCCc1[nH]c2ccccc2c(=O)c1CN(C)C [3-C1NMe2 C9 PQS]
Effective in enhancing translocation (Calu-3): No

CCCCCC/C=C/Cc1[nH]c2ccccc2c(=O)c1C [3-Me C9: 2. Quinolone]
Effective in enhancing translocation (Calu-3): No

CCCCCC/C=C\CCCC(=O)N[C@H]1CCOC1=O [5-cis-C12 HSL]
Effective in enhancing translocation (Calu-3): No

CCCCCCCc1[nH]c2cc(F)ccc2c(=O)c1O [7F-C7 PQS]
TEER (electrical resistance) upon agent exposure [1]: temporarily reduced | mAb (Mepolizumab) delivery upon agent exposure [1]: increased

CC(C)CCCCCCc1[nH]c2ccccc2c(=O)c1O [7Me-C8-PQS]
Effective in enhancing translocation (Calu-3): Yes

Cc1[nH]c2ccccc2c(=O)c1O [C1 PQS (Me PQS)]
Effective in enhancing translocation (Calu-3): Yes

CCCC(=O)NC1CCOC1=O (stereo not drawn) [C4 HSL (BHL), N-butyl-homoserine-lactone]
MMP activation (further MMP screening) (MMP; assay carried out in the same manner on further agents): cause MMP activation

CCCCCCCc1cc(O)c2ccccc2[n+]1[O-] [C7 HNQ N-oxide]
Effective in enhancing translocation (Calu-3): Yes

CCCCCCCc1[nH]c2ccccc2c(=O)c1O [C7 PQS, 2-n-heptyl-3-hydroxy-4 (1H)-quinolone]
Effective in enhancing translocation (Calu-3): Yes | paracellular passage / flux of FD4 from apical to basolateral chamber (Calu-3 cell layers; 200 μM (3OC12-HSL: 200 μM or 1 μM)): increased the flux of FD4 | TEER after 7 hours (Calu-3 cell layers; 200 μM, recovery, SEM+/−20): 510 Ωcm^−2 | time after which TEER started increasing / cell layer integrity began to recover (Calu-3 cell layers; during exposure): 5 h | ZO-1 distribution at tight junctions (ZO-1): considerable dislocation of ZO-1 proteins | cytotoxic effect on cell viability within epithelial layers (Calu-3 cells): do not have an adverse cytotoxic effect | MMP activation in apical samples taken at one-hour intervals (MMP; 200 μM, p<0.01, no fluorescence in control samples): significant MMP activation | period over which MMP activation increased before starting to reduce (MMP; samples taken hourly from apical chamber): 4 h

CCCCCCCCCc1[nH]c2ccccc2c(=O)c1O [C9 PQS]
Effective in enhancing translocation (Calu-3): Yes

CCCCCCCCCCCc1[nH]c2ccccc2c(=O)c1O [C11 PQS]
Effective in enhancing translocation (Calu-3): Yes

CCCCCCC/C=C\C(=O)O [Cis-2-decenoic acid, cis-2-decenoic acid]
Effective in enhancing translocation (Calu-3): Yes

COc1cccc2c1C(=O)c1c(O)c3c(c(O)c1C2=O)C[C@@](O)(C(=O)CO)C[C@@H]3O[C@H]1C[C@H](N)[C@H](O)[C@H](C)O1 [Doxorubicin, reference compound]
amount of drug transported into the basolateral chamber (ARPE-19 cell layers; with 3OC12-HSL (200 μM)): 62.33 µg | amount of drug transported into the basolateral chamber (ARPE-19 cell layers; without 3OC12-HSL): 9.85 µg

CCCCCCCc1cc(O)c2ccccc2n1 [HHQ]
Effective in enhancing translocation (Calu-3): Yes

CCCCCCCCCC1=Nc2ccccc2C(=O)C1 [HNQ]
Effective in enhancing translocation (Calu-3): Yes

CCCCC(=O)CC(=O)NC1CCOC1=O (stereo not drawn) [OC7-HSL]
Effective in enhancing translocation (Calu-3): Yes

CCCCCCCCCC(=O)CC(=O)Nc1nccs1 [OdDAT]
TEER (electrical resistance) upon agent exposure [1]: temporarily reduced | mAb (Mepolizumab) delivery upon agent exposure [1]: increased

CCCCCNC(=O)c1[nH]c2ccccc2c(=O)c1O [PQS-C5-Amide]
Effective in enhancing translocation (Calu-3): No

CCCCCCCCCCCc1cc(=O)c2ccccc2[nH]1 [UHQ]
Effective in enhancing translocation (Calu-3): Yes

Aflibercept: recombinant fusion protein of VEGF-binding portions of human VEGF receptors 1 and 2 and Fc of human IgG1
fluorescence in eye sections (CLSM) (ex-vivo rat eyes): No fluorescence was detected
